Holding throughout (type): cell-based
The test system of one assay is CCND. The assay can be described thus: CCND degradation in T47D cells with CPD-10 and negative control CPD-143 (FIG. 2A). The following applies: 48 hours, dose range. The procedure:
(§1) T47D cells were treated with a dose range of heterobifunctional compound CPD-10, and its negative control compound CPD-143 for 48 hours (FIG. 2A).
(§2) Cultured cells were washed with cold PBS once and lysed in cold RIPA buffer supplemented with protease inhibitors and phosphatase inhibitors (Beyotime Biotechnology). The solutions were then incubated at 4 ? for 30 min with gentle agitation to fully lysed cells. Cell lysates were centrifuged at 13,000 rpm for 10 min at 4 ? and pellets were discarded. Total protein concentrations in the lysates were determined following BCA assays (Beyotime Biotechnology). Cell lysates were mixed with Laemmli loading buffer and heated at 99° C. for 5 min. Proteins were resolved on SDS-PAGE and visualized using Western ECL Substrate kits on a ChemiDoc MP Imaging system (Bio-Rad). Protein bands were quantitated using the Image Lab software provided by Bio-Rad.

Assay [1] relates to CCND1, CCND3, CDK4 in T47D cells. Kind of assay: Immunoblot of CCND1, CCND3, CDK4 protein degradation in T47D cells (FIG. 2A, 48 hours). The following applies: negative control vs CPD-10. On the procedure:
Specific exemplary heterobifunctional compounds were characterized in Calu-1, MCF7, T47D and other cells. Cells that express cyclin D1-3 and CDK4/6 proteins were treated with heterobifunctional compounds disclosed herein at indicated concentrations. MCF7 cells were deprived of serum for 2 hours followed by the treatment with heterobifunctional compounds. Cells were collected, lysed and subject to immunoblotting using an antibody specific to CCND1, CCND2, CCND3, CDK4, or FoxM1, cyclin A2, or phosphorylated Rb (S807/811) proteins. Tubulin or GAPDH was used as the loading control. DMSO treatment was used as the negative control.
To verify that heterobifunctional compound-mediated degradation is dependent on the binding to CDK4-cyclin D complex, a negative control compound, CPD-143, which is derived from active heterobifunctional compound CPD-10 was designed. CPD-143 bears the same DDB1 ligand and linker as CPD-10 but with a modified warhead to impair the binding of the control compound to CDK4.
(A western blot detects proteins with antibodies after separation by electrophoresis.)

The subject of assay [2] is T47D cells. The assay can be described thus: Anti-proliferation (viability) of ER+ breast cancer T47D cells, 6 days (Table 7, FIG. 2B). The method, boiled down:
(§3)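 Cells were exposed to heterobifunctional compounds across a 10-point serial dilution, for 3 days with Calu-1 and 6 days with T47D. A negative control was included that keeps the DDB1 ligand and linker but carries a modified warhead that impairs CDK4 binding.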

Assay [3] has as its system HCC1428 cells. The assay can be described thus: Annexin V apoptosis flow cytometry, HCC1428 (FIG. 3B). The following applies: HCC1428, dose approximating IC90, 6 days. On the procedure: (§4) T47D cells were treated with DMSO, palbociclib, heterobifunctional compound CPD-10 for 6 days at doses approximating IC50 and IC90 concentrations as indicated (FIG. 3A). HCC1428 cells were treated with DMSO, palbociclib, heterobifunctional compound CPD-10, or its negative control compound CPD-143 for 6 days at doses approximating IC90 concentrations as indicated (FIG. 3B). Cells were harvested by trypsinization, staining was carried out using the Annexin V Apoptosis Detection Kit.
Assays were performed on the CytoFLEX Cytometer (Beckman Coulter), and data were analyzed using CytExpert software. For cell death and apoptosis analysis, cells were harvested by trypsinization, staining was carried out using the Annexin V Apoptosis Detection Kit (BD Biosciences). Briefly, cells were resuspended in 1× binding buffer and incubated with fluorochrome-conjugated Annexin V and 7-AAD for 15 min in darkness at room temperature.

Assay [4] relates to MCF7 cells. Kind of assay: Cell viability / anti-proliferation assay, MCF7 (Table 7, FIG. 2B). The following applies: 10-point serial dilution, 3-6 days. On the procedure: (§5) NSCLC Calu-1 or ER+ breast cancer T47D cells were treated with selected heterobifunctional compounds following a 10-point serial dilution for 3 or 6 days, respectively.
(§6) Cells were treated with heterobifunctional compounds following a 10-point serial dilution for 3-6 days. In Calu-1 cells, A: anti-proliferation activity IC50≤10 nM; B: anti-proliferation activity IC50<50 nM, and ≥10 nM; C: anti-proliferation activity IC50≥50 nM. In T47D cells, A: anti-proliferation activity IC50≤50 nM; B: anti-proliferation activity IC50≤100 nM, and ≥50 nM; C: anti-proliferation activity IC50≥100 nM; -, data not available.
(§7) Calu-1, MCF7 or T47D cells were seeded in 96-well plates and treated with CPD-10, or CPD-143 following a 10-point serial dilution for 3-6 days (FIG. 2B).
(§8) Calu-1, T47D, MCF7, HCC1428 and other cells were cultured at 37° C. with 5% CO2 in RPMI 1640 or DMEM medium supplemented with 10% fetal bovine serum. […]
(§9) Cells were seeded at a density of 2,000-5,000 cells per well in 96-well assay plates and treated with test compounds following a 10-point serial dilution for 3-6 days. Cell viability was determined using the CellTiter-Lumi assay kit according to the manufacturer's instructions. The dose-response curves were determined and IC50 values were calculated using the GraphPad Prism software following a nonlinear regression (least squares fit) method. […]

Assay [5] has as its system Calu-1 cells. The assay can be described thus: Anti-proliferation (viability) of NSCLC Calu-1 cells, 3 days (Table 7, FIG. 2B). The method in brief:
as §3

The subject of assay [6] is T47D cells. Kind of assay: Downstream inhibition in T47D cells with CPD-10 and negative control CPD-143 (FIG. 2A). Conditions: 48 hours, dose range. On the procedure: as §1, §2
Assay [7] relates to T47D cells. Kind of assay: Cell viability / anti-proliferation assay, T47D (Table 7, FIG. 2B). Conditions: 10-point serial dilution, 3-6 days. On the procedure: as §5, §6, §7, §8, §9
For a further assay, the target named is CDK4 (Homo sapiens, UniProt P11802+Q16531). Kind of assay: CDK4 percentage degradation in Calu-1 cells (Table 6). Also on record: Cells that express cyclin D1-3 and CDK4/6 proteins were treated with heterobifunctional compounds; endogenous in cells; host or cells: Calu-1. The following applies: 16 hours. The method, boiled down: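 Percentage degradation of Cyclin D1 and CDK4 derived from densitometry of ECL Western blots on lysates of Calu-1 cells. Treatment was 16 h with compound at either 40 nM or 200 nM.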
Chain of CDK4 (P11802 2-303 limits assumed): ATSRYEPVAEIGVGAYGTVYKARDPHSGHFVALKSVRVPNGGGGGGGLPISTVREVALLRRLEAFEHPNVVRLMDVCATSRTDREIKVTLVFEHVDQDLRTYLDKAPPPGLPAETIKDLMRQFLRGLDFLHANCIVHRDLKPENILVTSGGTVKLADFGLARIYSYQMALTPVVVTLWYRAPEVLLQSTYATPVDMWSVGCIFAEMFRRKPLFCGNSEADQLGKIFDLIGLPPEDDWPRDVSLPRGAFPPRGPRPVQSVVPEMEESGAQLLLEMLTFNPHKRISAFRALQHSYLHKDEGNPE
Chain of CDK4 (P24385 whole entry partner): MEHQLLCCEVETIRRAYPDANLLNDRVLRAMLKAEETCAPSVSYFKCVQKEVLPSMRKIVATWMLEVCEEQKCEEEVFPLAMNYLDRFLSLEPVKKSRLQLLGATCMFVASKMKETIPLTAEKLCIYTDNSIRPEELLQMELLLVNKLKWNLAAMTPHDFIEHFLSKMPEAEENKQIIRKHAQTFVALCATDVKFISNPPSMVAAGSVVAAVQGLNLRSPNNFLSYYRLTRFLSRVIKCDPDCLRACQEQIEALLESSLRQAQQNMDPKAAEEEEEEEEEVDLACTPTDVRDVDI
Chain of CDK4 (Q16531 2-1140 limits assumed): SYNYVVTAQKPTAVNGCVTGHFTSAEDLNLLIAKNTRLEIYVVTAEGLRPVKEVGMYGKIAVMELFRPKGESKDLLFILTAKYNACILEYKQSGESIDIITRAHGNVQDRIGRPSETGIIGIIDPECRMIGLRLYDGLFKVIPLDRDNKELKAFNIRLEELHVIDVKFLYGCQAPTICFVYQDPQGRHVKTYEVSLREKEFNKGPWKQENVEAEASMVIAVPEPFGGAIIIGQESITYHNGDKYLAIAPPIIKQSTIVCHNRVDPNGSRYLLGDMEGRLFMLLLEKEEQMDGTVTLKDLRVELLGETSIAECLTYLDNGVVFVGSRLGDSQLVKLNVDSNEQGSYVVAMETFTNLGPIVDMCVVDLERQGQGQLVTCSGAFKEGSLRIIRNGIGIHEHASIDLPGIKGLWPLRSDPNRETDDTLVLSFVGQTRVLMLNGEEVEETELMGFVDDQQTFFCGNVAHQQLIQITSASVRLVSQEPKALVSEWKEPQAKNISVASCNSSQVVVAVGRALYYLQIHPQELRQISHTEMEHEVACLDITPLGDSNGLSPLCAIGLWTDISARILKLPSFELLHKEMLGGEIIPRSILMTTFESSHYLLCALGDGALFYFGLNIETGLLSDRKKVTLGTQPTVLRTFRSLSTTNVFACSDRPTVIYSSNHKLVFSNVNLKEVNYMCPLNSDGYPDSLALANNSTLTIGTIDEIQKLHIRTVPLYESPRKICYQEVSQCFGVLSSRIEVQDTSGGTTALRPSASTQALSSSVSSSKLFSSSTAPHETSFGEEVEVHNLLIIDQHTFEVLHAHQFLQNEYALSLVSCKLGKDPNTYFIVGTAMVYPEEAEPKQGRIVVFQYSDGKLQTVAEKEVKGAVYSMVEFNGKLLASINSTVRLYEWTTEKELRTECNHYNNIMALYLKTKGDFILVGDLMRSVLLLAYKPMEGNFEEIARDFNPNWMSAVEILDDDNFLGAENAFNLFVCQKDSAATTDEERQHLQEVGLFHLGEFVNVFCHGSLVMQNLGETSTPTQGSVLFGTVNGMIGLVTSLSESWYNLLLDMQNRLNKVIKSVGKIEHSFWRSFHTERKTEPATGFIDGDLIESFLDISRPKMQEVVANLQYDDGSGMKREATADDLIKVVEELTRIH

The test system of assay [8] is HCC1428 cells. Kind of assay: Flow cytometric analysis of Annexin V/7-AAD stained HCC1428 cells (apoptosis), 6 days (FIG. 3B). Conditions: HCC1428; 400 nM; 6 days. On the procedure: as §4, with “IC50and” for “IC50 and”, “Kit. The percentages of early apoptotic (Annexin V^+7-AAD^−, lower right quadrant), late apoptotic (Annexin V^+7-AAD^+, upper right quadrant) and necrotic cells (Annexin V^−7-AAD^+, upper left quadrant) are indicated on dot plots.” for “Kit.”
For orientation: A flow cytometer gives signals particle by particle.

The subject of assay [9] is MCF7 cells. Kind of assay: Anti-proliferation (viability) of MCF7 cells (Table 7, FIG. 2B).
Assay [10] relates to Calu-1 cells. The assay can be described thus: Cell viability / anti-proliferation assay, Calu-1 (Table 7, FIG. 2B). The following applies: 10-point serial dilution, 3-6 days. On the procedure:
as §5, §6, §7, §8, §9

Each structure is given as a SMILES string.

Data on one molecule can be found in patent US20260297081A1, “COMPOUNDS AND METHODS OF TREATING CANCERS” (Cullgen Inc., priority 2023, published 2026).

As for `CNc1ccc(C(=O)Nc2ccc(N(C)C)nn2)c(NCCCCCCCNC(=O)CN2CCN(c3ccc(N(C)c4ncc5c(C)c(C(C)=O)c(=O)n(C6CCCC6)c5n4)nc3)CC2)n1` [CPD-143, 2-((7-(2-(4-(6-((6-acetyl-8-cyclopentyl-5-methyl-7-oxo-7,8-dihydropyrido[2,3-d]pyrimidin-2-yl)(methyl)amino)pyridin-3-yl)piperazin-1-yl)acetamido)heptyl)amino)-N-(6-(dimethylamino)pyridazin-3-yl)-6-(methylamino)nicotinamide], in the assay with CCND, the degradation potency result is recorded as “much weaker degradation potencies”. Besides, the “fold decrease in DC50 (degradation potency) compared with CPD-10” value in assay [1] is > 100 -fold. The IC50 with T47D cells [2] (Homo sapiens, 144 h, T47D cells, 6 days, 10-point serial dilution, read-out: GI IC50 in T47D) was not below 100 nM; in the assay with Calu-1 cells [5] (Homo sapiens, 72 h, Calu-1 cells, 3 days, 10-point serial dilution, read-out: GI IC50 in Calu-1) it was not below 50 nM; in the assay on MCF7 cells [9] (Homo sapiens, MCF7, MCF7 cells, 3-6 days, 10-point serial dilution, read-out: GI IC50 in MCF-7) it was more than 100 nM. The “fold decrease in cellular anti-proliferation activity compared with CPD-10” value is > 50 -fold in the assay with T47D cells [2] (T47D, negative control vs CPD-10, FIG. 2B); > 50 -fold with Calu-1 cells [5] (Calu-1, negative control vs CPD-10, FIG. 2B); > 15 -fold in the assay with MCF7 cells [9] (MCF7, negative control vs CPD-10, FIG. 2B). Further, the cell apoptosis result with HCC1428 cells [3] is “much less effect on cell apoptosis”. In addition, the “cell viability / anti-proliferation activity” value with MCF7 cells [4], with T47D cells [7] and with Calu-1 cells [10] was “much weaker cellular anti-proliferation activities” throughout. Moreover, the downstream inhibition potency entry in the assay on T47D cells [6] is “much weaker degradation potencies and downstream inhibition potencies”. On CDK4 (40 nM), this molecule came in with an inhibition at 0.04 µM of less than 30%. On CDK4 (200 nM), this molecule had an inhibition at 0.2 µM of 50 to 80%. Moreover, in the assay on HCC1428 cells [8], the “Annexin V+ population” value was determined as 11.8%.

What is called IC50 is the point on the concentration scale where inhibition reaches its midpoint. Usually inhibition stands for how much of the control response was suppressed.
